This note sets out measurements from patent US8496929B2, “Inotropic effects of antibodies on cardiac contraction” (priority 2002, dated 2013).

“Also recorded” adds a separate entry of the source.

The target in assay [1] is T1, digitalis-resistant rat (Na++K+)-ATPase (Rattus norvegicus, UniProt P06685).
T1 construct: the SL vesicles (4.4 mg/ml) were titrated with 0.58 mg/ml of SDS in the presence of 2 mM ATP; from tissue; host or cells: rat heart muscle; enzyme purified from SL vesicles by SDS titration and sucrose step gradient
Description: (Na++K+)-ATPase activity, digitalis-resistant enzyme. Conditions: enzyme 100 nM; 24-400 nM test agent; 100 mM Na+, 20 mM K+, 3 mM MgATP. The class given is biochemical. How it is done: (§1) Rat cardiac sarcolemmal (SL) vesicles were isolated from rat heart muscle by sucrose flotation method. The vesicles were tested with saponin and were predominately right-side-out in orientation. (Na^++K^+)-ATPase was purified as described previously (Kyte, J. (1971) Biochemistry, 246:4157-4165). Briefly, the SL vesicles (4.4 mg/ml) were titrated with 0.58 mg/ml of SDS in the presence of 2 mM ATP at 20° C. for 30 min. The SDS titrated fractions were then loaded on the top of a sucrose (W/W) step gradient constructed with 10 ml of 37.3% (bottom step), 20 ml of 28.8%, and 10 ml of 15% in a Ti 60 tube, and centrifuged at 40,000 rpm for 90 min. The fractions that contain (Na^++K^+)-ATPase (between 37.3 and 28.8% on the sucrose gradient) were carefully collected and sedimented at 40,000 rpm for 60 minutes. […]
The enzymatic activity was determined as described previously (Kyte J., et al., (1987) Biochemistry, 26:8350-8360) with modifications. […] The color was allowed to develop for 30 min at room temperature and the concentration of phosphate was then determined at 700 nm using a spectrophotometer.
To investigate whether the binding of Jianye affects (Na^++K^+)-ATPase activity, we measured (Na^++K^+)-ATPase (100 nM) activity in the presence of 100 mM Na^+, 20 mM K^+, 3 mM MgATP, and various concentrations of Jianye or ouabain. […]

Assay [2] has as its target T2, digitalis-sensitive (Na++K+)-ATPase purified from dog kidney (Canis lupus familiaris, UniProt P50997).
T2 construct: Highly purified dog kidney (Na^++K^+)-ATPase was a gift from Dr. Jack Kyte; tissue gift from Dr. Jack Kyte; host or cells: dog kidney
Description: (Na++K+)-ATPase activity, digitalis-sensitive enzyme. The settings on record: dog enzyme 16 nM; 24-400 nM. It counts as biochemical. How it is done:
The enzymatic activity was determined as described previously (Kyte J., et al., (1987) Biochemistry, 26:8350-8360) with modifications. Briefly, purified rat or dog (Na^++K^+)-ATPase was incubated with or without Jianye or ouabain in the presence of 100 mM Na^+ for 30 min at room temperature. The reaction was initiated by adding 3 mM MgATP and 20 mM K^+ in a final volume of 0.25 ml at 37° C. for 30 min and terminated by adding 0.75 ml quench solution and 0.025 ml developer. The color was allowed to develop for 30 min at room temperature and the concentration of phosphate was then determined at 700 nm using a spectrophotometer.
To investigate whether the binding of Jianye affects (Na^++K^+)-ATPase activity, we measured (Na^++K^+)-ATPase (100 nM) activity in the presence of 100 mM Na^+, 20 mM K^+, 3 mM MgATP, and various concentrations of Jianye or ouabain. […] To exclude the possibility that the inability of Jianye to inhibit enzymatic activity may be due to the digitalis-resistant nature of rat (Na^++K^+)-ATPase (FIG. 3), we tested the effect of Jianye on the digitalis-sensitive (Na^++K^+)-ATPase (16 nM) purified from dog kidney.

A further assay concerns (Na++K+)-ATPase. As to the kind of experiment: [3H]ouabain binding to cardiac sarcolemmal vesicles. Also on record: species or system rat. Conditions: PB added to Jianye prior to [3H]ouabain. How it is done:
as §1, with “minutes. The purified enzyme was resuspended in a sucrose (250 mM)/histidinium chloride (30 mM) buffer, pH 7.2, quick-frozen in liquid nitrogen and stored at −70° C.” for “minutes.”
Cardiac SL vesicles (3 mg/ml) were incubated with or without various concentrations of Jianye antibody for 30 minutes at room temperature in a medium containing 1 mM MgATP, 100 mM NaCl, and 10 mM Tris/HCl buffer (ph 7.4). […] An aliquot (20 or 50 Ml) was taken from each sample and radioactivity determined using a β-scintillation counter. The percent of [^3H]ouabain binding to the enzyme was then calculated. […]

The subject of the next assay is rat ventricular myocytes. As to the kind of experiment: Cell contraction and confocal Ca2+ transients in single ventricular myocytes. The settings on record: PB (PB95, 20 μM) mixed with Jianye prior to administration. The class given is cell-based. How it is done: Ventricular cardiac myocytes were isolated from adult Sprague-Dawley rats (2-3 months old; weight 225-300 g) using standard enzymatic techniques. Briefly, following anesthesia (sodium pentobarbital, 100 mg/kg), the heart was quickly removed from the chest and aortic perfused at constant pressure (100 cmH2O) at 37° C. for 3 minutes with a Ca^2+-free bicarbonate-based buffer containing 120 mM NaCl, 5.4 mM MgSO4, 1.2 mM NaH2PO4, 5.6 mM glucose, 20mM NaHCO3, and 5 mM taurine, in the presence of O2 (95%)-CO2 (5%). The enzymatic digestion was initiated by adding collagenase (Worthington Type II, 1 mg/ml) to the perfusion solution. Calcium (50 μM) was added to the enzyme solution when the heart became swollen. […]
Myocytes were placed on an inverted microscope (Zeiss model IM-35), superfused with HEPES-buffered solution at a flow rate of 1.8 ml/min, and electrically stimulated at 0.5 Hz at 23° C. Cell length was monitored from the bright field image (650 nm to 750 nm red light illumination) by an optical edge-tracking method using a photodiode array (model 1024 SAQ, Reticon) with a 3 ms time resolution. The contraction amplitude was measured as the percentage of shortening of cell length. […]
We next determined whether the binding of Jianye to the (Na^++K^+)-ATPase affects cardiac contractility. […]

As for `C[C@@H]1O[C@@H](O[C@H]2C[C@@H](O)[C@]3(CO)[C@H]4[C@H](O)C[C@]5(C)[C@@H](C6=CC(=O)OC6)CC[C@]5(O)[C@@H]4CC[C@]3(O)C2)[C@H](O)[C@H](O)[C@H]1O` [ouabain], the “inhibition of rat (Na++K+)-ATPase activity” value in assay [1] is listed as “did not inactivate”. In addition, in assay [2], the “effect on dog (Na++K+)-ATPase enzymatic activity” value was “reduced the enzymatic activity” and the “inhibition of ATP hydrolysis” value is recorded as “up to 47%”.

As to KRQPRNPKTDKLVNE [PB], the “[3H]ouabain labeling when Jianye is saturated by peptide blocker (effect on Jianye antagonism)” value in the assay on (Na++K+)-ATPase is on record as “not affected; also recorded: eliminated this antagonist effect”. The “blocking of Jianye-induced increases in Ca2+ transients and contraction” value with rat ventricular myocytes is “largely abolished; also recorded: completely abolished”; in the assay on rat ventricular myocytes (listed as PB95) it was “largely impeded”.
